Test system: A172 glioblastoma cells
Experiment: Cell viability, Trypan blue exclusion assay
Format: cell-based
Conditions: Homo sapiens, A 172, TMZ 10 μM for 144 hours in combination with 24-hour QMR treatment (4 MHz current waves), vs TMZ alone, FIG. 12b, read-out: cell viability reduced more than the reduction obtained in cells treated with TMZ drug alone
Description: Glioblastoma cell lines A172, T98G and U87MG were used. A172 and T98G cells (Sigma-Aldrich, St. Louis, MO, USA) were cultured in Dulbecco's Modified Eagle's Medium/Nutrient Mixture F-12 (DMEM/F12 GlutaMAX, Gibco, Thermo Fisher Scientific, Waltham, MA, USA) added with 10% foetal bovine serum (FBS) (Qualified Australian, Gibco, Thermo Fisher Scientific) and 1% penicillin/streptomycin (Sigma-Aldrich).
The cell lines were stimulated with QMR using a prototype QMR device from the company Telea (Telea Electronic Engineering, Sandrigo, VI, Italy). The device, suitably adapted for the present in vitro experiments, generated high-frequency sinusoidal alternating electric current waves of 4 MHz with harmonics from 4 to 64 MHz and had the following data: power supply 100÷230 V˜50/60 Hz; maximum output power, 5 W/400Ω.
QMR was applied to the cells using a pair of electrodes that were placed inside a 100 mm Petri dish, at the edge, and connected to the generator device. […] This value was measured by means of three independent measurements with a data-logger probe (iLog, Escort Scunthorpe, UK) placed in the culture medium. […]
For these analyses, the cells were treated for 144 hours with 10-25 μM of TMZ administered at the same time as or after QMR stimulation. […] Cell viability, apoptosis and the cell cycle were assessed after 144 hours. […]

Work on Cn1nnc2c(C(N)=O)ncn2c1=O [TMZ, temozolomide] yielded a cytotoxicity at 10 µM of ~12%.
